Measurements reported in ChEMBL document CHEMBL2375331, “Daphnane-type diterpenes with inhibitory activities against human cancer cell lines from Daphne genkwa” (Bioorg Med Chem Lett, 2013).

Assays:
Format in all cases: functional, cell-based
HT-1080 = assay: Cytotoxicity against human HT1080 cells after 48 hrs by MTT assay; conditions: HT-1080, 48 h
HeLa = assay: Cytotoxicity against human HeLa cells after 48 hrs by MTT assay
HepG2 = assay: Cytotoxicity against human HepG2 cells after 48 hrs by MTT assay; conditions: HepG2, 48 h
A549 = assay: Cytotoxicity against human A549 cells after 48 hrs by MTT assay; conditions: A549, 48 h
K562 = assay: Cytotoxicity against human K562 cells after 48 hrs by MTT assay; conditions: K562, 48 h
HCT-116 = assay: Cytotoxicity against human HCT116 cells after 48 hrs by MTT assay; conditions: HCT-116, 48 h
[1] = Cytotoxicity against human A375-S2 cells after 48 hrs by MTT assay; conditions: A375-S2, 48 h
U-937 = assay: Cytotoxicity against human U937 cells after 48 hrs by MTT assay; conditions: U-937, 48 h
MCF7 = assay: Cytotoxicity against human MCF7 cells after 48 hrs by MTT assay; conditions: MCF7, 48 h
HL-60 = assay: Cytotoxicity against human HL60 cells after 48 hrs by MTT assay; conditions: HL-60, 48 h

SMILES	IC50 (HT-1080)	IC50 (HeLa)	IC50 (HepG2)	IC50 (A549)	IC50 (K562)	IC50 (HCT-116)	IC50 [1]	IC50 (U-937)	IC50 (MCF7)	IC50 (HL-60)
C=C(C)[C@@]12OC3(c4ccccc4)O[C@@H]1[C@@H]1[C@H](O)[C@](O)(CO)[C@@H](O)[C@]4(O)C(=O)[C@@H](C)C=C4[C@@]1(O3)[C@H](C)[C@H]2OC(=O)c1ccccc1	16.1 µM	24.8 µM	27.9 µM	26.9 µM	46.9 µM	> 50 µM	14.3 µM	29.9 µM	33.7 µM	27.7 µM
C=C(C)[C@]12C[C@@H](C)[C@@]34O[C@@]5(CCCCCCC[C@@H](C)[C@H]6[C@H](C)[C@H](O)[C@@](O)([C@H](O)[C@@]7(COC(=O)c8ccccc8)O[C@H]7[C@H]3[C@H]1O5)[C@@H]64)O2	9.56 µM	> 50 µM	11.3 µM	18.8 µM	18.7 µM	28.9 µM	29.4 µM	16.5 µM	19.9 µM	18.1 µM
C=C(C)[C@]12C[C@@H](C)[C@@]34OC5(CCCCCCC[C@@H](C)[C@H]6[C@H](C)[C@H](O)[C@@](O)([C@H](O)[C@@](O)(COC(=O)c7ccccc7)[C@@H](O)[C@H]3[C@H]1O5)[C@@H]64)O2	7.71 µM	25.2 µM	28.6 µM	45 µM	> 50 µM	> 50 µM	28.6 µM	> 50 µM	> 50 µM	> 50 µM
C=C(C)[C@@]12OC3(/C=C/C=C/CCCCC)O[C@@H]1[C@@H]1[C@@H]4O[C@]4(CO)[C@@H](O)[C@]4(O)C(=O)C(C)=C[C@H]4[C@@]1(O3)[C@H](C)[C@H]2OC(=O)C(C)C	4.55 µM	> 50 µM	17.8 µM	23.1 µM	5.11 µM	25.2 µM	24.9 µM	27.6 µM	20.8 µM	30 µM
C=C(C)[C@]12C[C@@H](C)[C@]34OC5(CCCCCCC[C@H](C)[C@@H]6[C@@H]3[C@]3(O[C@]6(C)OC3=O)[C@H](O)[C@@]3(CO)O[C@H]3[C@H]4[C@H]1O5)O2	0.83 µM	28.1 µM	28.1 µM	35.7 µM	> 50 µM	36 µM	> 50 µM	> 50 µM	20.3 µM	> 50 µM
C=C(C)[C@]12C[C@@H](C)[C@]34OC5(CCCCCCC[C@@H](C)[C@@H]6[C@@H]3[C@]3(O[C@]6(C)OC3=O)[C@H](O)[C@@]3(CO)O[C@H]3[C@H]4[C@H]1O5)O2	20.8 µM	23.2 µM	25.2 µM	> 50 µM	26.3 µM	26.5 µM	23 µM	22.9 µM	7.36 µM	34.1 µM
C=C(C)[C@@]12O[C@@]3(c4ccccc4)O[C@@H]1[C@@H]1[C@@H]4O[C@]4(CO)[C@@H](O)[C@]4(O)C(=O)C(C)=C[C@H]4[C@@]1(O3)[C@H](C)[C@H]2OC(C)=O	< 0.1 µM	42.4 µM	> 50 µM	> 50 µM	> 50 µM	37.5 µM	> 50 µM	> 50 µM	> 50 µM	> 50 µM
C=C(C)[C@@]12O[C@@]3(c4ccccc4)O[C@@H]1[C@@H]1[C@@H]4O[C@]4(CO)[C@@H](O)[C@]4(O)C(=O)C(C)=C[C@H]4[C@@]1(O3)[C@H](C)[C@H]2OC(=O)c1ccccc1	< 0.1 µM	19.1 µM	24.1 µM	19.1 µM	22.5 µM	29.3 µM	16.9 µM	13.2 µM	2.36 µM	24.4 µM
C=C(C)[C@@]12OC3(/C=C/C=C/CCCCC)O[C@@H]1[C@@H]1[C@@H]4O[C@]4(CO)[C@@H](O)[C@]4(O)C(=O)C(C)=C[C@H]4[C@@]1(O3)[C@H](C)[C@H]2OC(=O)CC	28.8 µM	25.5 µM	13.5 µM	18.8 µM	29.4 µM	46.8 µM	> 50 µM	27.4 µM	> 50 µM	22.7 µM
C=C(C)[C@@]12O[C@@]3(c4ccccc4)O[C@@H]1[C@@H]1[C@@H]4O[C@]4(CO)[C@@H](O)[C@]4(O)C(=O)[C@@H](C)C[C@H]4[C@@]1(O3)[C@H](C)[C@H]2OC(C)=O	< 0.1 µM	50 µM	> 50 µM	> 50 µM	> 50 µM	> 50 µM	14.2 µM	> 50 µM	23.6 µM	> 50 µM
C=C(C)[C@@]12O[C@@]3(c4ccccc4)O[C@@H]1[C@@H]1[C@@H]4O[C@]4(CO)[C@@H](O)[C@]4(O)C(=O)[C@@H](C)C[C@H]4[C@@]1(O3)[C@H](C)[C@H]2OC(=O)c1ccccc1	14.3 µM	20.3 µM	24.1 µM	12.5 µM	24.6 µM	24.9 µM	9.31 µM	12.3 µM	0.37 µM	26 µM
C=C(C)[C@]12C[C@@H](C)[C@@]34OC(c5ccccc5)(OC1[C@@H]3[C@@H]1O[C@]1(COC(=O)c1ccccc1)[C@@H](O)[C@@]1(O)[C@H]4C[C@H](C)[C@@H]1O)O2	< 0.1 µM	20.2 µM	29.9 µM	23.4 µM	20.2 µM	28.1 µM	3.62 µM	18.1 µM	25.3 µM	30.9 µM
C=C(C)[C@]12C[C@@H](C)[C@@]34OC(c5ccccc5)(O[C@@H]1[C@@H]3[C@H](O)[C@](O)(COC(=O)/C=C/C=C/CCCCC)[C@@H](O)[C@@]1(O)[C@H]4C[C@H](C)[C@@H]1O)O2	29.9 µM	26.2 µM	22.7 µM	22.3 µM	24.2 µM	27.4 µM	25.4 µM	23.8 µM	> 50 µM	20.5 µM
C=C(C)[C@]1(O)C[C@@H](C)[C@@]2(O)[C@H]([C@H]1OC(=O)c1ccccc1)[C@H](O)[C@](O)(COC(=O)/C=C/C=C/CCCCC)[C@@H](O)[C@@]1(O)[C@H]2C[C@H](C)[C@@H]1O	22.9 µM	21.1 µM	17.9 µM	20.9 µM	24.5 µM	35.8 µM	23.7 µM	15.6 µM	> 50 µM	10.1 µM
O=c1[nH]cc(F)c(=O)[nH]1 [FLUOROURACIL]	35.6 µM	7.34 µM	40.3 µM	44.1 µM	23.6 µM	27.8 µM	6.67 µM	23.9 µM	11.5 µM	10.1 µM
C=C(C)[C@@]12O[C@@]3(/C=C/C=C/CCCCC)O[C@@H]1[C@@H]1[C@@H]4O[C@]4(CO)[C@@H](O)[C@]4(O)C(=O)C(C)=C[C@H]4[C@@]1(O3)[C@H](C)[C@H]2OC(=O)c1ccccc1 [GNIDILATIDIN]	2.02 µM	5.56 µM	8.04 µM	13.1 µM	16.1 µM	23 µM	8.72 µM	11.8 µM	2.39 µM	26.8 µM
C=C(C)[C@@]12OC3(/C=C/C=C\CCCCC)O[C@@H]1[C@@H]1[C@@H]4O[C@]4(CO)[C@@H](O)[C@]4(O)C(=O)C(C)=C[C@H]4[C@@]1(O3)[C@H](C)[C@H]2OC(C)=O [ISOYUANHUADINE]	14.9 µM	0.64 µM	30 µM	24.1 µM	17.5 µM	32.3 µM	21.5 µM	17.4 µM	23.4 µM	17.7 µM
C=C(C)[C@]12C[C@@H](C)[C@@]34OC(c5ccccc5)(O[C@@H]1[C@@H]3[C@@H]1O[C@]1(CO)[C@@H](O)[C@@]1(O)[C@H]4C[C@H](C)[C@@H]1O)O2 [ORTHOBENZOATE]	24.5 µM	31.7 µM	48.9 µM	> 50 µM	42.3 µM	49.9 µM	47.2 µM	> 50 µM	12.4 µM	> 50 µM
C=C(C)[C@]12C[C@@H](C)[C@@]34OC5(CCCCCCC[C@H](C)[C@H]6[C@H](C)[C@H](OC(=O)c7ccccc7)[C@@](O)([C@H](O)[C@@]7(CO)O[C@H]7[C@H]3[C@H]1O5)[C@@H]64)O2 [PIMELEA FACTOR P2]	13.2 µM	18.3 µM	19.1 µM	17 µM	25.2 µM	19.6 µM	25.7 µM	16.7 µM	> 50 µM	17.9 µM
C=C(C)[C@]12C[C@@H](C)[C@@]34O[C@](CCCCCCCCC)(O[C@@H]1[C@@H]3[C@@H]1O[C@]1(CO)[C@@H](O)[C@]1(O)C(=O)C(C)=C[C@H]14)O2 [SIMPLEXIN]	< 0.1 µM	21.7 µM	38.8 µM	27 µM	> 50 µM	> 50 µM	10.7 µM	> 50 µM	25.4 µM	> 50 µM
